Laboratory results taken from patent US20020173491A1, “DAPD combination therapy with inosine monophosphate dehydrogenase inhibitor” (priority 2000, published 2002).
Where two headings read alike, the source gives them in different places.

System: xxLAI strain of HIV-1
Experiment: microbe, parasite or virus in culture
Format: cell-based
Settings: for Fold difference in EC50, 0.1 μM MPA: control vs with 0.1 μM MPA; for Fold difference in EC50, 0.25 μM MPA: control vs with 0.25 μM MPA (fold decrease); for Fold difference in EC50, 1 μM RBV: control vs with 1 μM RBV; for Fold difference in EC50, 5 μM RBV: control vs with 5 μM RBV; for Fold difference in EC50, 10 μM RBV: control vs with 10 μM RBV; for Fold difference in EC50, 20 μM RBV: control vs with 20 μM RBV (fold decrease)
Method: Triplicate samples of compound were tested. MT2 cells were infected with xxLAI at a multiplicity of infection (MOI) of 0.03 for 3 hours at 37° C. in 5% CO2. The infected cells were plated at 3.0×10^4/well into a 96 well plated containing drug dilutions and incubated for 5 days at 37° C. in CO2. […] This method has been modified into a susceptibility assay and has been used in a variety of in vitro antiviral tests and is readily adaptable to any system with a lytic virus (Weislow, O. S., et. al. 1989). Using the absorption values of the cell controls as 100% protection and no drug, virus infected cells as 0% protection, a dose response curve is generated by plotting % protection on the Y axis and drug concentration on the X axis. From this curve EC50 values were determined.
Assays were performed in the MT2 cell line as described above in the XXT sensitivity assay section.
MPA was tested for activity against the xxLAI strain of HIV-1 in the laboratory adapted cell line MT2. Dilutions of MPA were made in cell culture media in a 96 well plate; the highest concentration tested was 1 μM. Triplicate samples of compound were tested. MT2 cells were infected with xxLAI at a multiplicity of infection (MOI) of 0.03 for 3 hours at 37° C. in 5% CO2. The infected cells were plated at 3.0×10^4/well into a 96 well plated containing drug dilutions and incubated for 5 days at 37° C. in CO2. The antiviral activity of MPA was determined using the XTT assay described above. This method has been modified into a susceptibility assay and has been used in a variety of in vitro antiviral tests and is readily adaptable to any system with a lytic virus (Weislow, O. S., et. al. 1989). Using the absorption values of the cell controls as 100% protection and no drug, virus infected cells as 0% protection, a dose response curve is generated by plotting % protection on the Y axis and drug concentration on the X axis. From this curve EC50 values were determined.
The concentrations of MPA used were 1, 0.5, 0.25, 0.1, and 0.01 μM. Assays were performed in the MT2 cell line as described in section 3.1.

[1] = Human immunodeficiency virus 1, MT2, read-out: Mean EC50, Control, MT2 cells, no MPA
[2] = Human immunodeficiency virus 1, MT2, read-out: Mean EC50, Control, MT2 cells, no RBV
[3] = read-out: Mean EC50, 0.01 μM MPA, MT2 cells, with 0.01 μM MPA
[4] = read-out: Mean EC50, 0.1 μM MPA, MT2 cells, with 0.1 μM MPA
[5] = read-out: Mean EC50, 0.25 μM MPA, MT2 cells, with 0.25 μM MPA
[6] = read-out: Mean EC50, 1 μM RBV, MT2 cells, with 1 μM RBV
[7] = read-out: Mean EC50, 5 μM RBV, MT2 cells, with 5 μM RBV
[8] = read-out: Mean EC50, 10 μM RBV, MT2 cells, with 10 μM RBV
[9] = read-out: Mean EC50, 20 μM RBV, MT2 cells, with 20 μM RBV

| SMILES | EC50 [1] [nM] | EC50 [2] [nM] | Fold difference in EC50, 0.1 μM MPA (MT2 cells) [fold] | Fold difference in EC50, 0.25 μM MPA (MT2 cells) [fold] | Fold difference in EC50, 1 μM RBV (MT2 cells) [fold] | Fold difference in EC50, 5 μM RBV (MT2 cells) [fold] | Fold difference in EC50, 10 μM RBV (MT2 cells) [fold] | Fold difference in EC50, 20 μM RBV (MT2 cells) [fold] | EC50 [3] [nM] | EC50 [4] [nM] | EC50 [5] [nM] | EC50 [6] [nM] | EC50 [7] [nM] | EC50 [8] [nM] | EC50 [9] [nM] |
| --- | --- | --- | --- | --- | --- | --- | --- | --- | --- | --- | --- | --- | --- | --- | --- |
| Nc1nc2c(ncn2C2COC(CO)O2)c(=O)[nH]1 (single isomer, unassigned; (-)) [DXG] | 2100 | 2650 | 3.5 | 10.5 | 1.29 | 4.57 | 5.3 | 12 | 2500 | 600 | 200 | 2050 | 580 | 500 | 220 |
| Nc1nc(N)c2ncn(C3COC(CO)O3)c2n1 (single isomer, unassigned; (-)) [DAPD] | 20000 | 18500 | 4.1 | 16.7 | 2.25 | 6.4 | 11.56 | 14.2 | 22000 | 4900 | 1200 | 8200 | 2900 | 1600 | 1300 |
